In patent EP0187355A1, “Process for preparing beta-lactam antibiotics” (E.R. Squibb & Sons, Inc., priority 1981, dated 1982):
Counter-ions that a name gives are not always drawn.

What was measured:
Assay in all cases: MIC, agar dilution
Format in all cases: cell-based
[1] = system: Acinetobacter calcoaceticus, 8333; details: K-10 agar, 10^4 CFU, 37°C; for MIC: Acinetobacter calcoaceticus, 8333, 18 h, read-out: M.I.C.
Procedure, shortened: (§1)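 Test strains are first grown in broth at 37°C for 18–20 hours, then diluted 1:100. Compounds are serially halved and mixed into K-10 agar at final levels from 100 to 0.05 µg/ml. Each plate receives about 10^4 CFU per organism, and growth is scored after 18 hours at 37°C.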

[2] = system: Citrobacter freundii, 9518; details: K-10 agar, 10^4 CFU, 37°C, 18 hours; for MIC: read-out: M.I.C.
Procedure, shortened: as §1

[3] = system: Enterobacter aerogenes, 10078; details: Enterobacter aerogenes, 10078, K-10 agar, 10^4 CFU, 37°C, 18 hours; for MIC: Klebsiella aerogenes, 10078, 18 h, read-out: M.I.C.
Procedure, shortened: as §1

Escherichia coli, 10857 = details: K-10 agar, 10^4 CFU, 37°C; for MIC: Escherichia coli, 10857, 18 h
Procedure, shortened: as §1

Escherichia coli, 10896 = details: K-10 agar, 10^4 CFU, 37°C, 18 hours
Procedure, shortened: as §1

Escherichia coli, 10909 = details: K-10 agar, 10^4 CFU, 37°C, 18 hours
Procedure, shortened: as §1

Escherichia coli, 8294 = details: K-10 agar, 10^4 CFU, 37°C; for MIC: Escherichia coli, 8294, 18 h
Procedure, shortened: as §1

[4] = system: Klebsiella aerogenes, 10440; details: K-10 agar, 10^4 CFU, 37°C, 18 hours; for MIC: read-out: M.I.C.
Procedure, shortened: as §1

[5] = system: Klebsiella pneumoniae, 9527; details: K-10 agar, 10^4 CFU, 37°C; for MIC: Klebsiella pneumoniae, 9527, 18 h, read-out: M.I.C.
Procedure, shortened: as §1

Proteus mirabilis, 3855 = details: K-10 agar, 10^4 CFU, 37°C; for MIC: Proteus mirabilis, 3855, 18 h, read-out: M.I.C.
Procedure, shortened: as §1

Proteus rettgeri, 8479 = details: K-10 agar, 10^4 CFU, 37°C, 18 hours; for MIC: Providencia rettgeri, read-out: M.I.C.
Procedure, shortened: as §1

Proteus vulgaris, 9416 = details: K-10 agar, 10^4 CFU, 37°C, 18 hours; for MIC: read-out: M.I.C.
Procedure, shortened: as §1

[6] = system: Pseudomonas aeruginosa, 8329; details: K-10 agar, 10^4 CFU, 37°C, 18 hours; for MIC: read-out: M.I.C.
Procedure, shortened: as §1

[7] = system: Pseudomonas aeruginosa, 9545; details: K-10 agar, 10^4 CFU, 37°C; for MIC: Pseudomonas aeruginosa, 9545, 18 h, read-out: M.I.C.
Procedure, shortened: as §1

Salmonella typhosa, 1195 = details: K-10 agar, 10^4 CFU, 37°C; for MIC: Salmonella enterica, TYPHOSA, 18 h
Procedure, shortened: as §1

[8] = system: Serratia marcescens, 9783; details: K-10 agar, 10^4 CFU, 37°C; for MIC: Serratia marcescens, 9783, 18 h, read-out: M.I.C.
Procedure, shortened: as §1

Shigella sonnei, 8449 = details: K-10 agar, 10^4 CFU, 37°C; for MIC: Shigella sonnei, 8449, 18 h
Procedure, shortened: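 Overnight broth cultures (37°C, 18–20 h) were diluted 1:100 and spotted onto K-10 agar plates containing twofold compound dilutions (final 100 to 0.05 µg/ml), giving 10^4 CFU per spot. After 18 h at 37°C, MIC was read as the lowest concentration inhibiting growth.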

[9] = system: Staphylococcus aureus, 10165; details: Staphylococcus aureus, 10165, K-10 agar, 10^4 CFU, 37°C, 18 hours; for MIC: read-out: M.I.C.
Procedure, shortened: as §1

[10] = system: Staphylococcus aureus, 1276; details: Staphylococcus aureus, 1276, K-10 agar, 10^4 CFU, 37°C, 18 hours; for MIC: read-out: M.I.C.
Procedure, shortened: as §1

[11] = system: Staphylococcus aureus, 2399; details: Staphylococcus aureus, 2399, K-10 agar, 10^4 CFU, 37°C, 18 hours; for MIC: Staphylococcus aureus, 2399, 18 h, read-out: M.I.C.
Procedure, shortened: as §1

[12] = system: Staphylococcus aureus, 2400; details: Staphylococcus aureus, 2400, K-10 agar, 10^4 CFU, 37°C, 18 hours; for MIC: read-out: M.I.C.
Procedure, shortened: as §1

[13] = system: Streptococcus faecalis, 9011; details: Streptococcus faecalis, 9011, K-10 agar, 10^4 CFU, 37°C, 18 hours; for MIC: Enterococcus faecalis, read-out: M.I.C.
Procedure, shortened: as §1

[14] = system: Enterobacter cloacae, 8236; details: K-10 agar, 10^4 CFU, 37°C; for MIC: Enterobacter cloacae, 8236, 18 h
Procedure, shortened: (§2)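 Broth cultures grown 18-20 h at 37°C, diluted 1:100 in K-10 broth, applied by multipoint inoculator at 10^4 CFU onto K-10 agar holding twofold compound dilutions, 100 to 0.05 µg/ml final. MIC taken as lowest concentration inhibiting growth.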

Micrococcus luteus, 2495 = details: K-10 agar, 10^4 CFU, 37°C; for MIC: Micrococcus luteus, 2495, 18 h, read-out: M.I.C.
Procedure, shortened: as §2

[15] = system: Streptococcus agalactiae, 9287; details: K-10 agar, 10^4 CFU, 37°C; for MIC: Streptococcus agalactiae, 9287, 18 h, read-out: M.I.C.
Procedure, shortened: as §2

`CON=C(C(=O)NC1C(=O)N(S(=O)(=O)O)C1C)c1csc(N)n1` (stereo not drawn) [Example 9, [3S-[3α(Z),4α]]-3-[[2-Amino-4-thiazolyl)-methoxyimino)acetyl]amino-4-methyl-2-oxo-1-azetidinesulfonic acid, potassium salt] showed a M.I.C. ([1]; 18 hours, potassium salt) of 25 µg/mL, a M.I.C. [2] of 0.1 µg/mL and a M.I.C. ([3]; potassium salt) of 0.2 µg/mL. For the same compound, the M.I.C. (Escherichia coli, 10857; 18 hours) was <0.05 µg/mL, the M.I.C. (Escherichia coli, 10896) was 0.1 µg/mL and the M.I.C. (Escherichia coli, 10909) was <0.05 µg/mL. The M.I.C. (Escherichia coli, 8294; 18 hours) was 0.1 µg/mL, the M.I.C. [4] was 0.2 µg/mL and the M.I.C. ([5]; 18 hours, potassium salt) was <0.05 µg/mL. The M.I.C. (Proteus mirabilis, 3855; 18 hours, potassium salt) was <0.05 µg/mL, the M.I.C. (Proteus rettgeri, 8479) was <0.05 µg/mL and the M.I.C. (Proteus vulgaris, 9416) was <0.05 µg/mL. The M.I.C. [6] was 100 µg/mL, the M.I.C. ([7]; 18 hours, potassium salt) was 0.4 µg/mL and the M.I.C. (Salmonella typhosa, 1195; 18 hours) was <0.05 µg/mL. For the same compound, the M.I.C. ([8]; 18 hours, potassium salt) was 0.2 µg/mL, the M.I.C. (Shigella sonnei, 8449; 18 hours) was 0.1 µg/mL and the M.I.C. [9] was “- (A dash (-) in the tables means that the compound tested did not show activity against the particular organism at 100 µg/ml)”. For the same compound, the M.I.C. [10] was 100 µg/mL, the M.I.C. ([11]; potassium salt) was 50 µg/mL and the M.I.C. [12] was 50 µg/mL. The M.I.C. [13] was “- (A dash (-) in the tables means that the compound tested did not show activity against the particular organism at 100 µg/ml)”, the M.I.C. ([14]; 18 hours, potassium salt) was 0.1 µg/mL and the M.I.C. (Micrococcus luteus, 2495; 18 hours, potassium salt) was 6.3 µg/mL. The M.I.C. ([15]; 18 hours, potassium salt) was 1.6 µg/mL.
In the case of `CC1C(NC(=O)C(NC(=O)N2CCN(N=Cc3ccco3)C2=O)c2ccccc2)C(=O)N1S(=O)(=O)O` (stereo not drawn) [Example 11, [3S-[3α(R*),4β]]-3-[[[[[3-[(2-furanyl-methylene)amino]-2-oxo-1-imidazolidinyl]-carbonyl]amino]phenylacetyl]amino]-4-methyl-2-oxo-1-azetidinesulfonic acid, potassium salt], the MIC [1] was 12.5 µg/mL, the MIC [2] was 0.8 µg/mL and the MIC [3] was 1.6 µg/mL. For the same compound, the MIC (Escherichia coli, 10857) was < 0.05 µg/mL, the MIC (Escherichia coli, 10896) was 0.4 µg/mL and the MIC (Escherichia coli, 10909) was 0.1 µg/mL. For the same compound, the MIC (Escherichia coli, 8294) was 1.6 µg/mL, the MIC [4] was 0.8 µg/mL and the MIC [5] was 0.1 µg/mL. The MIC (Proteus mirabilis, 3855) was 0.4 µg/mL, the MIC (Proteus rettgeri, 8479) was 0.4 µg/mL and the MIC (Proteus vulgaris, 9416) was < 0.05 µg/mL. The MIC [6] was 12.5 µg/mL, the MIC [7] was 1.6 µg/mL and the MIC (Salmonella typhosa, 1195) was 0.2 µg/mL. The MIC [8] was 0.8 µg/mL, the MIC (Shigella sonnei, 8449) was 0.4 µg/mL and the MIC [9] was > 100 µg/mL. The MIC [10] was 25 µg/mL, the MIC [11] was 25 µg/mL and the MIC [12] was 25 µg/mL. For the same compound, the MIC [13] was > 100 µg/mL, the MIC [14] was 0.8 µg/mL and the MIC (Micrococcus luteus, 2495) was 6.3 µg/mL. The MIC [15] was 0.4 µg/mL.
`CCN1CCN(C(=O)NC(C(=O)NC2C(=O)N(S(=O)(=O)O)C2C)c2ccccc2)C(=O)C1=O` (stereo not drawn) [Example 12, [3S-[3α(R*),4β]]-3-[[[[(4-ethyl-2,3-dioxo-1-piperazinyl)carbonyl]amino]phenylacetyl]-amino]-4-methyl-2-oxo-1-azetidinesulfonic acid, potassium salt] was tested, and the MIC [1] was 12.5 µg/mL, the MIC [2] was 1.6 µg/mL and the MIC [3] was 3.1 µg/mL. For the same compound, the MIC (Escherichia coli, 10857) was < 0.05 µg/mL, the MIC (Escherichia coli, 10896) was 1.6 µg/mL and the MIC (Escherichia coli, 10909) was 0.1 µg/mL. The MIC (Escherichia coli, 8294) was 1.6 µg/mL, the MIC [4] was 1.6 µg/mL and the MIC [5] was 0.1 µg/mL. For the same compound, the MIC (Proteus mirabilis, 3855) was 0.4 µg/mL, the MIC (Proteus rettgeri, 8479) was 0.4 µg/mL and the MIC (Proteus vulgaris, 9416) was < 0.05 µg/mL. For the same compound, the MIC [6] was 12.5 µg/mL, the MIC [7] was 0.8 µg/mL and the MIC (Salmonella typhosa, 1195) was 0.2 µg/mL. For the same compound, the MIC [8] was 1.6 µg/mL, the MIC (Shigella sonnei, 8449) was 0.8 µg/mL and the MIC [9] was > 100 µg/mL. For the same compound, the MIC [10] was 25 µg/mL, the MIC [11] was 50 µg/mL and the MIC [12] was 50 µg/mL. For the same compound, the MIC [13] was > 100 µg/mL, the MIC [14] was 1.6 µg/mL and the MIC (Micrococcus luteus, 2495) was 6.3 µg/mL. For the same compound, the MIC [15] was 6.3 µg/mL.
